{"source": "paper PMC9103758", "about": "(International Journal of Molecular Sciences, 2022)", "key": {"[1]": {"target": "T1, VRAC-mediated chloride current (ICl, swell) in HEK293T cells (Homo sapiens, UniProt Q8IWT6)", "T1 construct": "endogenous in cells; host or cells: HEK293T", "T1 sequence (Q8IWT6 1-810)": "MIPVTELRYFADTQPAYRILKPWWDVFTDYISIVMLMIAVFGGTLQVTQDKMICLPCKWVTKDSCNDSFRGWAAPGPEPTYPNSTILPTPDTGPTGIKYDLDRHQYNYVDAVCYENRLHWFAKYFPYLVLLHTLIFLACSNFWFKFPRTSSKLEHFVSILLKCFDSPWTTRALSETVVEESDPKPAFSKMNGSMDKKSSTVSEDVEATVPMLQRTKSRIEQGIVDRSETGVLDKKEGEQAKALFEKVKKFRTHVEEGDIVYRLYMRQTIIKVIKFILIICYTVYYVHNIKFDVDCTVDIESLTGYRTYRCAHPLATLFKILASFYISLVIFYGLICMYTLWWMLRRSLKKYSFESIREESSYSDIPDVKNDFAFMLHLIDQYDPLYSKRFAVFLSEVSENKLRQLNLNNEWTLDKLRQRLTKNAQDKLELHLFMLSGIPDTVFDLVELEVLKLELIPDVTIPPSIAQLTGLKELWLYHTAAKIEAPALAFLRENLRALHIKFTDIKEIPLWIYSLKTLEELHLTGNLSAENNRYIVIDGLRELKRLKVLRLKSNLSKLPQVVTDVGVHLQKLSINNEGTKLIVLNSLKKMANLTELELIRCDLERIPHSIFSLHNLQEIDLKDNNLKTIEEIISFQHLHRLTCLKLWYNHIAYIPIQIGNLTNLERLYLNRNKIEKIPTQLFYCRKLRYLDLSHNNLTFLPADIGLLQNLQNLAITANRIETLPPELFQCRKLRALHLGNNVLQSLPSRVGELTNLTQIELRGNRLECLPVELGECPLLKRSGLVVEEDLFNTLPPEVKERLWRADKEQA", "assay": "Whole-cell voltage-clamp of ICl,swell in HEK293T cells", "type": "cell-based", "settings": "dose-dependent", "quoted_text": "(A) Whole-cell membrane currents were recorded at a holding potential of −50 mV by voltage steps ranging from −120 to 120 mV (in steps of 20 mV) in HEK293T cells. […] (C) Whole-cell VRAC currents were recorded at a holding potential of −50 mV by voltage steps ranging from −100 to 100 mV (in steps of 20 mV) in LN215 cells.\nFor volume-regulated anion channel (VRAC) currents measurement, the isotonic bath solution contained (in mM): 150 NaCl, 6 KCL, 1.5 CaCl2, 1 MgCl2, 10 glucose, 1 HEPES, and pH 7.4 with NaOH (320 mOsm). […] The pipette solution contained (in mM): 40 CsCl, 100 Cs-methanesulfonate, 0.5 EGTA, 1 MgCl2, 1.9 CaCl2, 5 EGTA, 4 Tris−ATP, 10 HEPES, and pH 7.2 with CsOH (290 mOsm). Pipettes were pulled from borosilicate glass and had resistances of 3–5 MΩ after fire polishing. Seal resistances were between 3 and 10 GΩ. The liquid junction potential (~2.4 mV) was not corrected. After establishing the whole-cell configuration, whole-cell capacitance and series resistance were compensated with the amplifier circuitry. VRAC was activated by exposing LN215 cells to a 25% hypotonic bath solution. Whole-cell currents were elicited by applying hyperpolarizing and depolarizing voltage pulses from a holding potential of 0 mV to potentials between −100 mV and +100 mV or −120 mV and +120 mV in steps of 20 mV. Recordings were made at room temperature. […]"}, "human CFTR": {"target": "T2, human CFTR (Homo sapiens, UniProt P13569)", "T2 construct": "expressed in transfected cells; host or cells: Fisher rat thyroid (FRT) cells", "T2 sequence (P13569 whole entry)": "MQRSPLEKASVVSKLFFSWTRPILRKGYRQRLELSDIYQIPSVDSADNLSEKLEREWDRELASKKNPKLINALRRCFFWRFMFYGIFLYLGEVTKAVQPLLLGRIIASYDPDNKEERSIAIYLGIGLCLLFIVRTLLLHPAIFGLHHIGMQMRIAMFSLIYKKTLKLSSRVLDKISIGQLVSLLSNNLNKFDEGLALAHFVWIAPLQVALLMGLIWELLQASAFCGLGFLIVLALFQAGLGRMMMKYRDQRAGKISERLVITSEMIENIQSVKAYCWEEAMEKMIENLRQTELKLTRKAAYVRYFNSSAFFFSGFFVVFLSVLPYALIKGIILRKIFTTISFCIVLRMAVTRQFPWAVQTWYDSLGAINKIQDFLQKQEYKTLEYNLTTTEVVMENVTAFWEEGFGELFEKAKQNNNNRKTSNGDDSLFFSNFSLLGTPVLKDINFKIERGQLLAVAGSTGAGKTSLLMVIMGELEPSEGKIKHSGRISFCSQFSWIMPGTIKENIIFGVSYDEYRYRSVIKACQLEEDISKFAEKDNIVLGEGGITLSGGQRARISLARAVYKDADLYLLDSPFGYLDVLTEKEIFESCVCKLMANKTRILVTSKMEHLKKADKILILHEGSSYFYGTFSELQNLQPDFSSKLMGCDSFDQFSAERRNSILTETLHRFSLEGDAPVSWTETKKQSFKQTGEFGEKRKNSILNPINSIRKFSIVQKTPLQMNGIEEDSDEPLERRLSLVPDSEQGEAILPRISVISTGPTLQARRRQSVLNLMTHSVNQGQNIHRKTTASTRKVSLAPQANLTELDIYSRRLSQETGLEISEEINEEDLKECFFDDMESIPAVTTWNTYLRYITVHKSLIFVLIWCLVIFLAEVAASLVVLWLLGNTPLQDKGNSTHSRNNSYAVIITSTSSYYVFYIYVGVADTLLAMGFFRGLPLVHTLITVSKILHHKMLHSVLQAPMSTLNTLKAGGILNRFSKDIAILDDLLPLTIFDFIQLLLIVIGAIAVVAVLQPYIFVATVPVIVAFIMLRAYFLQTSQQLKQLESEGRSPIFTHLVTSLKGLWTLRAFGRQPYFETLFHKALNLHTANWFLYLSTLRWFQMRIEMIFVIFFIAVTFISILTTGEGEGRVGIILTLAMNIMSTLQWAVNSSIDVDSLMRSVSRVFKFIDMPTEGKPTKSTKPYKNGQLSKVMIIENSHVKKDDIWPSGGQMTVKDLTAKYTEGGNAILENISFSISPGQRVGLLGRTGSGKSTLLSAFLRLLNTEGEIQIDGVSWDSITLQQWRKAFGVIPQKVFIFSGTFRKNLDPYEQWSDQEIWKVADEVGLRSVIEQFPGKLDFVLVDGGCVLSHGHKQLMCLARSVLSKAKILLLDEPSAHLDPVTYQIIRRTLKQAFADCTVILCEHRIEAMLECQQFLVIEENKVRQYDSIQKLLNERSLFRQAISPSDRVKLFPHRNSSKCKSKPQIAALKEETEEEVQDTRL", "assay": "Apical membrane current of CFTR in FRT cells expressing human CFTR", "type": "cell-based", "settings": "apical membrane current, FRT cells expressing human CFTR, 20 μM forskolin, n = 5; read-out: CFTR chloride channel IC50", "description": "[…]. (C) Summary of dose-response (mean ± S.E., n = 5). […]. (F) Summary of dose−response (mean ± S.E., n = 6).\n(§1) Snapwell inserts containing ANO1(abc) or CFTR-expressing FRT cells were mounted in Ussing chambers (Physiological Instruments, San Diego, CA). The basolateral hemichamber was filled with buffer solution (in mM): 120 NaCl, 5 KCl, 1 MgCl2, 1 CaCl2, 10 D-glucose, 2.5 HEPES, and 25 NaHCO3 (pH 7.4). The apical hemichamber was filled with buffer solution (in mM): 60 NaCl, 60 Na-gluconate, 5 KCl, 1 MgCl2, 1 CaCl2, 10 D-glucose, 2.5 HEPES, and 25 NaHCO3 (pH 7.4). FRT cells were bathed for a 10 min stabilization period and gassed with 5% CO2 and 95% O2 at 37 °C. The apical membrane current was recorded with an EVC4000 Multi-Channel V/I Clamp (World Precision Instruments, Sarasota, FL, USA) and a PowerLab 4/35 (AD Instruments, Castle Hill, Australia)."}, "ANO1": {"target": "T3, ANO1 (Homo sapiens, UniProt Q5XXA6, DEL476-501)", "T3 construct": "expressed in transfected cells; host or cells: Fisher rat thyroid (FRT) cells; The YFP assay uses FRT-ANO1-YFP cells, which also carry the halide sensor", "T3 sequence (Q5XXA6 with tags, fused parts or gaps isoform Q5XXA6-5 DEL539-564)": "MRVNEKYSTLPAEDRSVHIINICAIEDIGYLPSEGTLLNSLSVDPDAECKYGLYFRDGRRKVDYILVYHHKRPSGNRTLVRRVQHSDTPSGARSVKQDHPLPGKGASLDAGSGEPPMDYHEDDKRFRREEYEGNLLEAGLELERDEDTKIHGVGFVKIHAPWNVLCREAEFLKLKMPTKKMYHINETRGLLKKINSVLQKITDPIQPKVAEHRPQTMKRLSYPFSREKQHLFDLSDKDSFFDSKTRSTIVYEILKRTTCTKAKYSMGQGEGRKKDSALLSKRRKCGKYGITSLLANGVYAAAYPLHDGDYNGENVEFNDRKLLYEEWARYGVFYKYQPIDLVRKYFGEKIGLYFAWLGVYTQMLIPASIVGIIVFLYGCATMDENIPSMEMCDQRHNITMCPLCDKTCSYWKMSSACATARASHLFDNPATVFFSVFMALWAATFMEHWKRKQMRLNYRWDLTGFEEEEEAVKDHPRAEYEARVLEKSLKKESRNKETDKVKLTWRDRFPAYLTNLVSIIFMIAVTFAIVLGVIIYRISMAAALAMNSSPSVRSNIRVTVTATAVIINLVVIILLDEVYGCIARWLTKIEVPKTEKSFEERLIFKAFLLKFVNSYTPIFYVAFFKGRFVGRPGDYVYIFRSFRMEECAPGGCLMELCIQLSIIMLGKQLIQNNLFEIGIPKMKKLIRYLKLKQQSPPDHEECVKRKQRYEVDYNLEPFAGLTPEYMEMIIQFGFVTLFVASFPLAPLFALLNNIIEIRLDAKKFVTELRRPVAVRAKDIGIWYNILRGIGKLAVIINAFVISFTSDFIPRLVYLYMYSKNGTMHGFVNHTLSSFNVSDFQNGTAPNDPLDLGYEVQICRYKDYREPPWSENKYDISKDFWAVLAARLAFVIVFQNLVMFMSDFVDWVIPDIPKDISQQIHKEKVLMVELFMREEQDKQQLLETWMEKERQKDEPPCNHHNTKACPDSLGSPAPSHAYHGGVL", "assay": "Apical membrane current of ANO1 in FRT cells expressing human ANO1", "type": "cell-based", "protocol": "(§2) (A) Representative Fluo4 fluorescence traces from 3 independent experiments in FRT cells. […] (B,C) Representative apical membrane currents from 3–4 independent experiments in FRT cells expressing human ANO1. […] (D) Representative YFP fluorescence traces in FRT cells expressing human ANO2. […] (E) Representative Fluo4 fluorescence traces from 3 independent experiments in FRT cells. Cells were pretreated with DCPIB for 10 min followed by application of 100 μM ATP. (F) Representative apical membrane currents in FRT cells expressing human ANO1.\nas §1"}, "[2]": {"system": "ATP-induced intracellular calcium signaling in FRT cells", "assay": "Intracellular calcium measurement (Fluo-4) in FRT cells", "type": "cell-based, rat", "settings": "100 μM ATP", "protocol": "as §2\nFRT cells were plated on 96-well black-walled microplates and loaded with Fluo-4 NW according to the manufacturer’s protocol (Invitrogen, Carlsbad, CA, USA). […] The 96-well plates were transferred to a plate reader for fluorescence assay."}}, "note": "pIC50: −log10 of the molar value. Entries after “also recorded” stand apart in the source; their conditions may differ."}
{"compound": "COc1cccc(C(c2c(O)c3ccccc3oc2=O)c2c(O)c3ccccc3oc2=O)c1O", "note": "[VI-116, 3,3′-((2-hydroxy-3-methoxyphenyl)methylene)bis(4-hydroxy-2H-chromen-2-one)]", "values": [{"measurement": "effect on hypotonic perfusion activated ICl, swell", "setting": "[1]", "value": "completely blocked"}, {"measurement": "pIC50", "setting": "human CFTR", "value": 4.91}, {"measurement": "effect on ANO1 channel activity", "setting": "ANO1; 10 μM", "value": "minimal effect"}, {"measurement": "effect on ANO1 activation by Eact (apical membrane current)", "setting": "ANO1; FRT cells expressing human ANO1, 3 μM Eact", "value": "did not alter"}, {"measurement": "effect on ANO1 activation by ATP (apical membrane current)", "setting": "ANO1; FRT cells expressing human ANO1, 100 μM ATP", "value": "did not alter"}, {"measurement": "effect on intracellular calcium signaling", "setting": "[2]; 30 μM", "value": "weak inhibitory effect"}, {"measurement": "effect on ATP-induced increase in intracellular calcium levels", "setting": "[2]; up to 10 μM", "value": "no effect; also recorded: did not affect"}]}
